US10273228B2, “Hepatitis B viral assembly effectors” (Indiana University Research and Technology Corporation, priority 2015, dated 2019)
Like-named read-outs stand apart in the source and are kept apart here.

Experiments:
[1] = test system: HBV viral load, AD38 cells; assay: Activity of test compounds on viral production from AD38 cells (viral load by quantitative PCR of the core sequence in supernatant); assay type: cell-based, Hepatitis B virus; settings: 10 μM compound, 6 days at 37° C., vs DMSO control wells; for activity at 10 µM: Hepatitis B virus, 144 h, read-out: AD38 Viral Load (CpAM/DMSO %) at 10 μM
Method in brief: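 Cells seeded at 50,000/well on collagen-coated plates and exposed for 6 days at 37 °C to compound at 1, 3 or 10 μM final (1.0% DMSO). Supernatant viral DNA measured by TaqMan qPCR of the core sequence against known standards, compared with DMSO control wells.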

AD38 cells = assay: AD38 viability normalized to DMSO control; assay type: cell-based; settings: 10 μM compound, vs DMSO control
Description: AD38 cells were then re-suspended with 10 mL of treatment medium and counted. Wells of a collagen coated 96-well NUNC microtiter plate were seeded at 50,000/well in 180 μL of treatment medium, and 20 μL of either 10% DMSO (Control) or a 10× solution of test compound in 10% DMSO in treatment media was added for a final compound concentration 1, 3, or 10 μM (1.0% final [DMSO]) and plates were incubated for 6 days at 37° C.

SMILES	activity at 10 µM ([1]; Table 6) [%]	AD38 Viability Normalized Result (CPAM/DMSO %) at 10 μM (AD38 cells; Table 6) [%]	activity at 10 µM ([1]; Table 9) [%]	AD38 Viability Normalized Result (CPAM/DMSO %) at 10 μM (AD38 cells; Table 9) [%]	AD38 Viral Load (CpAM/DMSO %) at 10 μM ([1]; Table 9) [%]
COc1ccc(S(=O)(=O)N2CCN(c3nc(Nc4ccc(C)cc4)cc(-c4nccs4)n3)CC2)cc1 [Compound 1242]	30	103	–	–	–
Cc1cc(Nc2ccc(F)cc2)nc(N2CCN(S(=O)(=O)c3ccc(O[C@@H](C)C(=O)O)cc3)CC2)n1 [Compound 1396, (S)-2-(4-((4-(4-((4-fluorophenyl)amino)-6-methylpyrimidin-2-yl)piperazin-1-yl)sulfonyl)phenoxy) propanoic acid]	–	–	70	100	–
O=S(=O)(c1ccc(OC(F)(F)F)cc1)N1CCN(c2nc(Nc3ccc(F)cc3)cc(C(F)(F)F)n2)CC1 [Compound 1340]	–	–	1	88	–
O=S(=O)(c1ccc(F)cc1)N1CCN(c2nc(Nc3ccc(F)cc3)cc(-c3nccs3)n2)CC1 [Compound 1375]	–	–	–	104	43
COc1ccc(S(=O)(=O)N2CCN(c3nc(C)cc(Sc4ccc(C)cc4)n3)CC2)cc1 [Compound 1159]	81	95	–	–	–
Cc1ccc(Nc2cc(C)nc(N3CCN(S(=O)(=O)c4cc(C(=O)Nc5cc(F)c(F)c(F)c5)ccc4F)CC3)n2)cc1 [Compound 1286, 4-fluoro-3-((4-(4-methyl-6-(p-tolylamino)pyrimidin-2-yl)piperazin-1-yl)sulfonyl)-N-(3,4,5-trifluorophenyl) benzamide]	2	86	–	–	–
Cc1ccc(S(=O)(=O)N2CCN(c3nc(C)cc(Nc4ccc(F)cc4)n3)CC2)cc1 [Compound 1339]	–	–	50	93	–
COc1ccc(S(=O)(=O)N2CCN(c3nc(C)cc(Nc4ccc(F)cc4)n3)C(C)C2)cc1 (stereo not drawn) [Compound 1371]	–	–	29	111	–
COc1ccc(S(=O)(=O)N2CCN(c3nc(C)cc(Nc4ccc(C#N)cc4)n3)C(=O)C2)cc1 [Compound 1352]	–	–	89	96	–
CCCCCOc1ccc(S(=O)(=O)N2CCN(c3nc(Nc4ccc(F)cc4)cc(C(F)(F)F)n3)CC2)cc1 [Compound 1401]	–	–	42	97	–
O=S(=O)(c1ccc(C(F)(F)F)cc1)N1CCN(c2nc(Nc3ccc(F)cc3)cc(-n3cnnc3)n2)CC1 [Compound 1315]	89	98	–	–	–
COC(=O)c1ccc(S(=O)(=O)N2CCN(c3nc(Nc4ccc(F)cc4)cc(C(F)(F)F)n3)CC2)cc1 [Compound 1386]	–	–	23	118	–
COc1ccc(S(=O)(=O)N2CCN(c3nc(Nc4ccc(C)cc4)cc(-n4ccnc4)n3)CC2)cc1 [Compound 1229]	13	92	–	–	–
COc1ccc(S(=O)(=O)N2CCN(c3nc(C)cc(Oc4ccc(C)cc4)n3)CC2)cc1 [Compound 1152]	20	107	–	–	–
COc1ccc(S(=O)(=O)N2CCN(c3nc(C)cc(Nc4cncnc4)n3)CC2)cc1 [Compound 1186]	76	106	–	–	–
COc1ccc(S(=O)(=O)N2CCN(c3nc(Nc4ccc(C)cc4)cc(OCCO)n3)CC2)cc1 [Compound 1265, 2-((2-(4-((4-methoxyphenyl)sulfonyl)piperazin-1-yl)-6-(p-tolylamino)pyrimidin-4-yl)oxy) ethan-1-ol]	13	102	–	–	–
N#Cc1ccc(Nc2cc(-c3cncs3)nc(N3CCN(S(=O)(=O)c4ccc(OC(F)(F)F)cc4)CC3)n2)cc1 [Compound 1372]	–	–	21	109	–
Cc1ccc(Nc2cc(C)nc(N3CCN(S(=O)(=O)c4ccccc4C)CC3)n2)cc1 [Compound 1153]	21	109	–	–	–
